Source: patent US20240309015A1, “Methods for the Treatment of Fibrotic Disease” (SHY Therapeutics, LLC, priority 2021, published 2024)

How the values were obtained:
KRas G12D mutant = experiment: Ras GTP Binding Domain Inhibition Assay, KRas G12D mutant; details: at 20 μM; for KRas G12D mutant + SOS: % inh.: with SOS; for KRas G12D mutant: % inh.: without SOS
Experimental: (§1) A Ras Superfamily Activity Assay (as disclosed in International Application No. PCT/US2018/038613, filed Jun. 20, 2018, which is incorporated by reference in its entirety) was used as a specific assay to evaluate compounds against the following for the following Ras Superfamily proteins: KRas wild type, KRas Q61H mutant, KRas G12C mutant, KRas G12D mutant, Rac-1, and Rho-A.
(§2) Buffer-I: • 25 mM Tris-HCl, pH 7.4 • 27 mM KCl • 137 mM NaCl • 1 mM MgCl2 • 1 mM DTT
(§3) Buffer-IL: • 50 mM Tris-HCl, pH 7.0 • 1 mM MgCl2 • 1 mM DTT
(§4) The small GTPases proteins: KRas wild type. KRas Q61H mutant, KRas G12C mutant, KRas G12D mutants, Rac-1, and Rho-A were expressed as His-tagged proteins. In addition, the Guanosine nucleotide Exchange Factor (GEF) Sos protein (residues 556-1049) was expressed as a His-tagged protein. In cells, the guanine nucleotide exchange factor Sos protein promotes activation of Ras proteins by stimulating an exchange of GDP for GTP. The inclusion of Sos to the Ras GTP binding domain inhibition assay may be considered as an alternative representation of physiological cellular conditions for evaluating the inhibitory activity of some of the tested small molecules.
(§5) For the assay, all purified small GTPases proteins were diluted in Buffer-I or Buffer-II to a final concentration of 10-30 μg/mL. 200 μL of each diluted protein was added to a nickel-coated 96-well plate and incubated overnight at 4° C. Then the protein solution was discarded and 200 μL of Buffer-I or Buffer-II was added to each well in the presence of 1% DMSO. Compounds to be tested were added to the protein-coated wells at final concentration of 20 μM, and incubated for 3 hours at room temperature with and without 10-30 μg/mL of Sos added to the final hour of the incubation. When performing IC50 measurements a serial dilution of all tested concentrations was added. Then Cy3-GTP or Cy5-GTP was added to each well to a final concentration of 100 nM. The labeled GTP was incubated for 45 minutes at room temperature. Following GTP incubation, wells were washed 3× in Buffer-I or Buffer-II and 200 μL of Buffer-I or Buffer-II was added to each well. Following washes, the amount of bound labeled-GTP was measured using a SpectraMax M3 (Molecular Devices).

KRas G12C mutant = experiment: Ras GTP Binding Domain Inhibition Assay, KRas G12C mutant; details: at 20 μM; for KRas G12C mutant + SOS: % inh.: with SOS; for KRas G12C mutant: % inh.: without SOS
Experimental: as §1, §2, §3, §4, §5

Rho-A = experiment: Ras GTP Binding Domain Inhibition Assay, Rho-A; details: at 20 μM; for Rho-A + SOS: % inh.: with SOS; for Rho-A: % inh.: without SOS
Experimental: as §1, §2, §3, §4, §5

KRas wild type = experiment: Ras GTP Binding Domain Inhibition Assay, KRas wild type; details: at 20 μM; for KRas wild type + SOS: % inh.: with SOS; for KRas wild type: % inh.: without SOS
Experimental: as §1, §2, §3, §4, §5

Row | Compound | KRas G12D mutant + SOS: % inh. (KRas G12D mutant; Table 7) | KRas G12D mutant + SOS: % inh. (KRas G12D mutant; Table 8) | KRas G12D mutant: % inh. (KRas G12D mutant; Table 7) | KRas G12D mutant: % inh. (KRas G12D mutant; Table 8) | KRas G12C mutant + SOS: % inh. (KRas G12C mutant) | KRas G12C mutant: % inh. (KRas G12C mutant) | Rho-A + SOS: % inh. (Rho-A) | Rho-A: % inh. (Rho-A) | KRas wild type + SOS: % inh. (KRas wild type) | KRas wild type: % inh. (KRas wild type)
1 | COCCNc1nc(-c2cn(C)cn2)nc2sc(-c3cccc(OC)c3Cl)c(-c3ccc(OC)cc3)c12 [Compound 8, 6-(2-Chloro-3-methoxyphenyl)-N-(2-methoxyethyl)-5-(4-methoxyphenyl)-2-(1-methyl-1H-imidazol-4-yl)thieno[2,3-d]pyrimidin-4-amine] | B (B = 26-45% inhibition) | B (B = 26-45% inhibition) | B (B = 26-45% inhibition) | B (B = 26-45% inhibition) | D (D = 76-100% inhibition) | B (B = 26-45% inhibition) | C (C = 46-75% inhibition) | C (C = 46-75% inhibition) | D (D = 76-100% inhibition) | C (C = 46-75% inhibition)
2 | COc1cccc(-c2sc3nc(-c4nccn4C)nc(NC4CCC(OC)C4)c3c2C)c1F (racemic) [Compound 10, rac-6-(2-Fluoro-3-methoxyphenyl)-N-((1R,3S)-3-methoxycyclopentyl)-5-methyl-2-(1-methyl-1H-imidazol-2-yl)thieno[2,3-d]pyrimidin-4-amine and rac-6-(2-Fluoro-3-methoxyphenyl)-N-((1R,3R)-3-methoxycyclopentyl)-5-methyl-2-(1-methyl-1H-imidazol-2-yl)thieno[2,3-d]pyrimidin-4-amine] | C (C = 46-75% inhibition) | C (C = 46-75% inhibition) | D (D = 76-100% inhibition) | D (D = 76-100% inhibition) | C (C = 46-75% inhibition) | D (D = 76-100% inhibition) | D (D = 76-100% inhibition) | D (D = 76-100% inhibition) | C (C = 46-75% inhibition) | C (C = 46-75% inhibition)
3 | COCCCNc1nc(-c2nccn2C)nc2sc(-c3ccccc3)c(-c3ccccc3)c12 [Compound 3, N-(3-Methoxypropyl)-2-(1-methyl-1H-imidazol-2-yl)-5,6-diphenylthieno[2,3-d]pyrimidin-4-amine] | A (A = 1-25% inhibition) | A (A = 1-25% inhibition) | C (C = 46-75% inhibition) | C (C = 46-75% inhibition) | – | C (C = 46-75% inhibition) | – | C (C = 46-75% inhibition) | A (A = 1-25% inhibition) | C (C = 46-75% inhibition)
4 | COC1CCN(c2nc(-c3nccn3C)nc3sc(-c4ccn(C)n4)c(-c4ccccc4)c23)CC1 [Compound 6, 4-(4-Methoxypiperidin-1-yl)-2-(1-methyl-1H-imidazol-2-yl)-6-(1-methyl-1H-pyrazol-3-yl)-5-phenylthieno[2,3-d]pyrimidine] | B (B = 26-45% inhibition) | B (B = 26-45% inhibition) | B (B = 26-45% inhibition) | B (B = 26-45% inhibition) | C (C = 46-75% inhibition) | B (B = 26-45% inhibition) | 0 (0 = 0% inhibition) | 0 (0 = 0% inhibition) | B (B = 26-45% inhibition) | 0 (0 = 0% inhibition)
